Columns and labels:
Conditions in all cases: incubation time: 72 h
CAL-148 = experiment: normalised viability (% of control), CellTiter-Blue; higher = more viable cells (about 100 = DMSO control)
How it was run: (§1)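 Breast cancer cell lines were treated for 72 h in 384-well format and measured by CellTiter-Blue fluorescence at 560/590 nm. Results were normalised per plate to vehicle (100) and a positive kill control (0). The entry is normalised viability at a single listed concentration of the series.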

HDQ-P1 [1] = experiment: as above
How it was run: as §1

HCC1143 = experiment: as above
How it was run: as §1

MDA-MB-231 [2] = experiment: as above
How it was run: as §1

CAL-85-1 = experiment: as above
How it was run: as §1

BT-549 [3] = experiment: as above
How it was run: as §1

CAL-51 = experiment: as above
How it was run: as §1

SK-BR-3 = experiment: as above
How it was run: as §1

MDA-MB-436 [4] = experiment: as above
How it was run: as §1

MFM-223 = experiment: as above
How it was run: as §1

HCC1599 [5] = experiment: as above
How it was run: as §1

CAL-120 = experiment: as above
How it was run: as §1

HCC1937 [6] = experiment: as above
How it was run: as §1

Hs578T = experiment: as above
How it was run: as §1

DU-4475 = experiment: as above
How it was run: as §1

MDA-MB-468 = experiment: as above
How it was run: as §1

MDA-MB-453 = experiment: as above
How it was run: as §1

BT-474 = experiment: as above
How it was run: as §1

HDQ-P1 [7] = experiment: drug sensitivity score (DSS), CellTox Green (DSS (AUC-based score)); higher = stronger drug effect (viability inhibition or cytotoxicity); extreme values may be limits of the assay
How it was run: (§2)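 Breast cancer cell lines, seeded as 20 µl suspension, were incubated 72 h with compound in 384-well plates at 5 concentrations in 10-fold steps over a 10,000-fold range set for each compound. Fluorescence from CellTox Green was read at 485/520 nm before CellTiter-Glo luminescence, which was read after 10 min at room temperature. Every plate was normalised to 0.1 % DMSO and a positive kill control, and the drug sensitivity score was taken from the area under the fitted dose-response curve.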

MDA-MB-231 [8] = experiment: as above
How it was run: as §2

BT-549 [9] = experiment: as above
How it was run: as §2

MDA-MB-436 [10] = experiment: as above
How it was run: as §2

HCC1599 [11] = experiment: as above
How it was run: as §2

HCC1937 [12] = experiment: as above
How it was run: as §2

CC[C@@]1(O)C(=O)OCc2c1cc1n(c2=O)Cc2cc3c(CN(C)C)c(O)ccc3nc2-1 [Topotecan]
normalised viability [%]
Conditions | 0.3 nM | 1 nM | 3 nM | 10 nM | 100 nM | 1000 nM
BT-474 | – | 127 | – | – | 112 | 77.9
BT-549 [3] | – | 85.9 | – | – | 75.3 | 62.9
CAL-51 | 99 | – | 96.5 | 96.8 | – | –
CAL-85-1 | 93.2 | – | 85.2 | 96.9 | – | –
CAL-120 | – | 86.2 | – | – | 54.8 | 32.1
CAL-148 | 84.5 | – | 111 | 96.5 | – | –
DU-4475 | 88.4 | – | 88.4 | 78.5 | – | –
HCC1143 | – | 79.9 | – | – | 79.1 | 41.9
HCC1599 [5] | – | 91.5 | – | – | 82.3 | 64
HCC1937 [6] | – | 96.9 | – | – | 40.6 | 26.2
HDQ-P1 [1] | 112 | – | 105 | 105 | – | –
Hs578T | – | 132 | – | – | 102 | 69.4
MDA-MB-231 [2] | – | 97 | – | – | 80.5 | 59.8
MDA-MB-436 [4] | – | 110 | – | – | 75.5 | 44.6
MDA-MB-453 | 103 | – | 107 | 102 | – | –
MDA-MB-468 | – | 108 | – | – | 45.6 | 12.8
MFM-223 | – | 105 | – | – | 88.2 | 53.5
SK-BR-3 | – | 105 | – | – | 48.7 | 24.8

Conditions | drug sensitivity score
BT-549 [9] | 0
HCC1599 [11] | 2.71
HCC1937 [12] | 3.78
HDQ-P1 [7] | 0.486
MDA-MB-231 [8] | 10.2
MDA-MB-436 [10] | 8.04

— the supplement of paper PMC4862054
